What all share (assay): NCI tumour cell line growth inhibition, 48 h
The subject of test [1] is T-47D breast.
Test [2] deals with SF-268 CNS.
Test [3] deals with SK-OV-3 ovarian.
In test [4] the test system is SNB-19 CNS.
Test [5] deals with HCC-2998 colon.
Test [6] concerns OVCAR-3 ovarian.
Test [7] relates to M14 melanoma.
Test [8] has as its system SR leukemia.
Test [9] concerns MCF7 breast.
The subject of test [10] is MDA-MB-435.

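How tested: cells in 96-well plates exposed to compound for 48 hours at five concentrations. Abbreviation: GI50, concentration required for 50% inhibition of growth. TGI is the concentration that stops growth completely.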

With `O=C(NCc1cn(Cc2cccc(Oc3ccccc3)c2)nn1)c1cccnc1Nc1ccc(F)cc1`, the GI50 was 21.4 µM in test [1]; 21 µM in test [2]; 5.94 µM in test [3]; 20.7 µM in [4]; greater than 100 µM in [5]; 17.7 µM in test [6]. Besides, the GI50 in test [7] was 13.7 µM. The TGI in test [1] is greater than 100 µM; in test [2] it was greater than 100 µM; in [3] it was 36.1 µM; in [4] it was greater than 100 µM; in [5] it was greater than 100 µM; in test [6] it was greater than 100 µM. This compound also showed a TGI in test [7] greater than 100 µM.
For `CC(=O)/C(=C\c1ccc(Cl)cc1)c1ccccc1`, the GI50 was 0.0415 µM in test [8]; 0.201 µM in test [2]; 0.0942 µM in [3]; 0.344 µM in [4]; 0.328 µM in test [5]; 0.0375 µM in [9]. Further, the GI50 in [6] was 0.0383 µM. Also, the TGI was greater than 49.7 µM in [8]; greater than 100 µM in [2]; greater than 100 µM in test [3]; greater than 100 µM in test [4]; greater than 68.9 µM in test [5]; greater than 100 µM in [9]. In addition, in [6], the TGI came to 0.229 µM.
On to `O=C(CCc1nnc2s/c(=C\c3ccc([N+](=O)[O-])cc3)c(=O)n12)Nc1ccc(Cl)c(Cl)c1`, for which the TGI in test [2] was 35.7 µM; in test [3], greater than 100 µM; in [4], greater than 100 µM; in test [5], 53.9 µM; in test [6], 27 µM; in test [7], 45 µM.
In the case of `C[C@@H]1C(=O)CC2C(C)(C)CCC[C@]2(C)[C@@]12CC[C@]1(C=COC1)O2` (stereo partly specified), the TGI was 59 µM in test [8]; greater than 100 µM in test [2]; 91.7 µM in test [3]; greater than 100 µM in test [4]; greater than 100 µM in [5]; greater than 100 µM in test [6]. For the same compound, in test [7], the TGI is greater than 100 µM.
`CN(C)CC1CC/C(=C\c2ccc(Cl)c(Cl)c2)C1=O` (stereo unspecified): the TGI in test [8] is 6.91 µM; in [2], greater than 74.3 µM; in [3], greater than 100 µM; in [4], greater than 56.1 µM; in test [5] it was greater than 58.5 µM; in test [6] it was greater than 61.5 µM. In [7], this compound displayed a TGI of 48.5 µM.
For the compound `Cn1cc(C2NC(=O)c3ccccc3N2)c2ccccc21` (stereo unspecified), the TGI is greater than 100 µM in [2]; greater than 100 µM in test [10]; 40.3 µM in test [3]; greater than 91 µM in test [4]; 7.45 µM in [5]; 5.1 µM in test [9]. Moreover, the TGI in test [6] is 2.03 µM; in test [7] it was greater than 65.8 µM.
Take `O=c1nc2n(-c3cccc(Cl)c3)c3ccc([N+](=O)[O-])cc3cc-2c(=O)[nH]1`: the GI50 in test [1] is 7.82 µM; in test [2] it was 3.56 µM; in [10], 4.06 µM; in test [3], 15 µM; in test [4], 7.5 µM; in test [5], 4.92 µM. In addition, the GI50 in test [6] is 1.08 µM; in [7], 6.55 µM. Further, the TGI was greater than 25 µM in test [1]; 13.3 µM in test [2]; 8.09 µM in test [10]; greater than 25 µM in test [3]; greater than 25 µM in [4]; 11 µM in test [5]. Also, the TGI in test [6] came out at 4.42 µM; in test [7] it was 16.8 µM.
Regarding `Cc1c(C(Cc2ccccc2N(C)C(=O)/C=C\C(=O)O)c2c[nH]c3ccccc23)c2ccccc2n1C` (stereo unspecified), the TGI in test [8] worked out at 46.7 µM; in test [2], 35.9 µM; in [3], 40.2 µM; in [4] it was 39.4 µM; in test [5], 30.9 µM; in [6] it was 27.7 µM. In [7], this compound registered a TGI of 39.5 µM.
`NC1=C(O)c2cccc3cccc(c23)C1=O`: the TGI in [2], in test [3], in [4], in test [5], in test [6] and in test [7] was greater than 100 µM throughout.
Take `Cc1cc(N(CCC#N)CCC#N)ccc1/C=C(\NC(=O)/C=C/c1ccccc1)C(=O)N=[N+]=[N-]`: the TGI in test [2], in test [3], in [4], in [5], in [6] and in test [7] was greater than 100 µM throughout.
`COC(=O)[C@@H](C)C[C@H](Cc1ccccc1)NC(=O)c1nc([C@@H](C[C@H](C(C)C)N(C)C(=O)[C@@H](NC(=O)[C@H]2C[C@H](O)CCN2C)C(C)C)OC(C)=O)sc1C(C)C`: the GI50 in test [8] was 0.00126 µM; in [2] it was 0.00957 µM; in test [10], less than 0.00111 µM; in test [3], 0.00646 µM; in [4] it was 0.00424 µM; in test [5], 0.00353 µM. Also, the results for the GI50 in test [9], in test [6] and in test [7] were less than 0.00111 µM, 0.00148 µM and 0.0149 µM, respectively. For the same compound, the TGI in [8] was greater than 11.1 µM; in [2], greater than 11.1 µM; in [10] it was 0.00288 µM; in test [3], greater than 11.1 µM; in test [4], greater than 11.1 µM; in test [5] it was 4.52 µM. Also, the TGI in test [9] was greater than 11.1 µM; in test [7] it was 1.24 µM.
Take `CN(C)CCC(N)(P(=O)([O-])[O-])P(=O)([O-])[O-].N.N.[Pt+2]`: the GI50 in test [8], in test [2], in test [4], in test [5], in [6] and in [7] was greater than 100 µM in each case. The TGI in test [8], in test [2], in test [4], in test [5], in test [6] and in test [7] was greater than 100 µM throughout.
As to `O=S1OC(c2ccccc2)(c2ccccc2)C(c2ccccc2)(c2ccccc2)O1`, the TGI in test [8], in [2], in test [3], in test [4], in test [5] and in [6] was greater than 100 µM in each case. In [7], the TGI was greater than 100 µM.
As for `N#CC(C(=O)CCCC(=O)Nc1ccccc1[N+](=O)[O-])c1c(Cl)cccc1Cl` (stereo unspecified), the TGI in [8], in [2], in test [3], in [4], in test [5] and in test [6] was greater than 100 µM in each case. The compound further had a TGI in test [7] greater than 100 µM.
As for `COC(=O)C(=O)C(C#N)c1nc2ccccc2s1` (stereo unspecified), the TGI in [2], in test [3], in [4], in [5], in test [6] and in test [7] was greater than 100 µM throughout.
Regarding `NC(N)NCCCc1cn2c(n1)C1CCCN1C(=O)C2Cc1ccccc1` (stereo unspecified), the TGI in test [2], in test [3], in test [4], in test [5], in [6] and in test [7] was greater than 100 µM each time.
As for `O=C([CH-]C(=O)c1ccccc1)c1ccccc1.O=C([CH-]C(=O)c1ccccc1)c1ccccc1.O=C([CH-]C(=O)c1ccccc1)c1ccccc1.[Ga+3]`, the GI50 was 9.53 µM in [8]; 35.1 µM in [2]; 63.5 µM in [3]; greater than 100 µM in test [4]; greater than 100 µM in test [6]; 37.6 µM in test [7]. Moreover, the TGI in [8], in test [2], in [3], in [4], in test [6] and in [7] was greater than 100 µM in each case.
In the case of `CC(=O)OC(C)(C)C1CC[C@]2(C)/C=C/C(C)C[C@@H](O)/C=C(\C)CC(O)C12` (stereo partly specified), the TGI in test [8], in test [2], in [3], in [4], in test [5] and in test [6] was greater than 100 µM throughout. In [7], this compound returned a TGI greater than 100 µM.
`COc1cccc2c1nc(C(F)F)n2-c1nc(-c2ccc(NS(=O)(=O)CCN(C)C)cc2)nc(N2CCOCC2)n1`: the GI50 in test [1] was 0.0177 µM; in test [8] it was 0.319 µM; in test [2], 0.157 µM; in test [10] it was 0.132 µM; in test [3], 0.0396 µM; in test [4], 1.28 µM. Further, the GI50 in test [5] is 0.0974 µM; in test [6] it was 0.105 µM; in test [7], 0.243 µM. The TGI was 0.0882 µM in test [1]; 3.87 µM in test [8]; 13.3 µM in [2]; 7.2 µM in [10]; 0.214 µM in [3]; greater than 100 µM in test [4]. Besides, the TGI was 17.4 µM in [5], 3.13 µM in test [6] and greater than 100 µM in test [7].
Regarding `O=C(CCc1n[nH]c(=S)o1)Nc1cc(Cl)ccc1Cl`, the TGI in test [2], in test [3], in test [4], in [5], in test [6] and in [7] was greater than 100 µM throughout.
Turning to `COc1ccc(C(=O)C(C(=O)CCC(=O)Nc2ccc(Cl)c(Cl)c2)c2ccc(OC)cc2)cc1` (stereo unspecified), the TGI in test [2], in [4], in [5], in [6] and in [7] was greater than 100 µM throughout.
Turning to `O=C1NN2CC(c3ccccc3)=NN=C2c2ccccc21`, the GI50 was 0.507 µM in test [8]; 26.8 µM in test [2]; 36.7 µM in test [10]; 24.2 µM in test [3]; 20.5 µM in test [4]; 15.6 µM in [5]. For the same compound, the figures for the GI50 in test [9], in test [6] and in test [7] were 15.8 µM, 20.1 µM and 21.9 µM, respectively. Besides, the TGI in test [8] was 42 µM; in [2], 82.3 µM; in test [10], greater than 100 µM; in test [3], 51 µM; in test [4], 44.7 µM; in test [5] it was 36.2 µM. The values for the TGI in [9], in test [6] and in test [7] were 37.2 µM, 48.2 µM and 48.9 µM, respectively.
As to `O=C(/C=C/c1ccccc1)NC1C=Nc2ccc([N+](=O)[O-])cc2NC1=O` (stereo unspecified), the TGI in test [8], in test [2], in [3], in test [4], in [5] and in test [6] was greater than 100 µM in each case. The compound further returned a TGI in [7] greater than 100 µM.
Consider `CC(C)(CN1CCCCC1)C(=O)/C=C/c1ccccc1`, for which the TGI worked out at 36.8 µM in test [2]; 57.3 µM in test [3]; 34.6 µM in test [4]; 27.9 µM in test [5]; 21.6 µM in test [6]; 34.7 µM in test [7].
For `C/C(CN1C(=O)c2ccccc2C1=O)=N\NS(=O)(=O)c1ccc2ccccc2c1`, the TGI in [8], in test [2], in test [3], in test [4], in test [5] and in test [6] was greater than 100 µM throughout. The compound also registered a TGI in test [7] greater than 100 µM.
On to `O=C1C2C3CC4C5C3C1C5C1(SCCS1)C42` (stereo unspecified), for which the TGI in test [8], in test [2], in test [3], in test [4], in [5] and in test [7] was greater than 100 µM in each case.
Consider `COc1ccc(C2COc3c(ccc(OC)c3OC)C2=O)cc1OC` (stereo unspecified), for which the TGI in test [8], in [2], in test [3], in test [4], in test [5] and in test [6] was greater than 100 µM throughout. The compound also returned a TGI in [7] greater than 100 µM.
As for `COc1nc(NC2OC(COC(C)=O)C(OC(C)=O)C(OC(C)=O)C2OC(C)=O)c(N=CC=Nc2c(NC3OC(COC(C)=O)C(OC(C)=O)C(OC(C)=O)C3OC(C)=O)nc(OC)[nH]c2=O)c(=O)[nH]1` (stereo unspecified), the TGI in test [2], in test [3], in test [4], in [5], in [6] and in [7] was greater than 100 µM in each case.

Source of the values: PubChem BioAssay (NCI).
